In PubChem BioAssay AID720587 (Broad Institute, 2013):
Calls of active or inactive are those of the source.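 Rule for the calls: active = fitted curve reaches -35% activity change at a concentration below twice the top valid dose tested; inactive = the rest, including effects opposite to the expected direction.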

experiment: EWS/Fli1-dependent A673 cell killing, confirmation, CellTiter-Glo luminescence, cherry-pick retest (AID 720587); conditions: A673 Ewing sarcoma viability, CellTiter-Glo ATP luminescence, 72 h; at 23.5 µM (top of the series)

| SMILES | activity change, negative = cytotoxicity |
| --- | --- |
| COC(=O)C[C@@H]1CC[C@@H]2[C@H](COc3ccc(NC(=O)c4cccc(Cl)c4)cc3C(=O)N2C)O1 | -7.39% (inactive) |
| COc1ccccc1NC(=O)N1[C@@H]2CNC[C@H]1[C@@H]2c1ccc(-c2ccc(C#N)cc2)cc1 | 13.3% (inactive) |

same assay, conditions: A673 Ewing sarcoma viability, CellTiter-Glo ATP luminescence, 72 h; at 26 µM (top of the series)

| SMILES | activity change, negative = cytotoxicity |
| --- | --- |
| CCOc1ccc(C(c2c(NC(=O)c3ccccc3)sc(C)c2C)N2CCN(CCO)CC2)cc1 (stereo not drawn) | 9.4% (inactive) |
| CC(=O)Nc1ccc(S(=O)(=O)Nc2ccc(N3CCCCC3)cc2)cc1 | -16.3% (inactive) |
| O=C1CCCC2=C1C(c1ccccn1)Nc1ccc(C(=O)c3ccccc3)cc1N2 (stereo not drawn) | 3.59% (inactive) |
| COc1ccc(OC)c(-c2cc(C(F)(F)F)c3c(n2)sc2c(O)cc(=O)[nH]c23)c1 | -2.54% (inactive) |
| CCCN(C)C[C@H]1Oc2ncc(-c3ccccc3)cc2C(=O)N([C@@H](C)CO)C[C@H]1C | -4.17% (inactive) |
| CCc1ccc(/C=C2\SC(=S)N(CCCC(=O)NC3=NCCS3)C2=O)cc1 | 1.62% (inactive) |
| CN(C)Cc1c(O)ccc2c1O/C(=C\C=C\c1ccccc1)C2=O | -7.01% (inactive) |
| CC(C)c1ccccc1NC(=O)COC(=O)CCN1C(=O)/C(=C\C=C\c2ccccc2)SC1=S | -0.202% (inactive) |
| Cc1c(Cl)cnc(NC(=O)COC(=O)c2ccc3ncsc3c2)c1Cl | 12.1% (inactive) |
| COc1ccc(/C=C2\SC(=O)N(CCCC(=O)Nc3cc(Cl)ccc3C(=O)O)C2=O)cc1 | 1.72% (inactive) |
| O=C(O)c1cccc(N/N=C/c2ccc(OC(F)(F)F)cc2)c1 | 10.4% (inactive) |
| O=C(C[C@@H]1CC[C@@H]2[C@H](COC[C@@H](O)CN2S(=O)(=O)c2ccc(F)cc2)O1)NCc1ccc(Cl)c(Cl)c1 | 8.17% (inactive) |
| C[C@@H]1CN([C@@H](C)CO)C(=O)Cc2cc(NC(=O)Cn3cnnn3)ccc2O[C@@H]1CN(C)Cc1ccc(Oc2ccccc2)cc1 | 8.72% (inactive) |
| COc1ccc(CNc2ncc(-c3ccc(F)cc3)n2C)c2ccccc12 | 2.68% (inactive) |
| CC(=O)c1ccc(N=Nc2ccc(C)cc2)cc1 | 2.05% (inactive) |
| COc1ccc(Nc2oc(COc3ccccc3OC)nc2C#N)cc1 | 2.48% (inactive) |
| CN(C(=O)COC(=O)c1cc(-c2ccccc2Cl)nc2ccccc12)C1CCS(=O)(=O)C1 (stereo not drawn) | -1.76% (inactive) |
| COc1cc(OC)cc(-c2cc3nc(C)c(CCC(=O)NCc4ccccc4)c(C)n3n2)c1 | 6.68% (inactive) |
| COc1ccccc1-c1cn(CC[C@H]2CC[C@@H](NC(=O)C3CCCC3)[C@@H](CO)O2)nn1 | 6.63% (inactive) |
| COc1ccc(S(=O)(=O)N=Nc2c(O)[nH]c3ccccc23)cc1 | 8.74% (inactive) |
| COc1ccc(N=C(NN)c2ccc3ccccc3n2)cc1 | -15.8% (inactive) |
| CCCCOc1ccc(NC(=O)C(=O)NCCCn2ccnc2)cc1 | -2.77% (inactive) |
| CC(C)CC(NC(=O)c1cccs1)c1nnc(SCc2ccc(Cl)c(Cl)c2)n1C (stereo not drawn) | 6.55% (inactive) |
| CC(=O)Nc1ccc(OCC(=O)N(CC(C)C)C2CCS(=O)(=O)C2)cc1 (stereo not drawn) | 8.05% (inactive) |
| COc1ccc(/C=C2\SC(=S)N(CCCC(=O)Nc3ccc(O)cc3)C2=O)cc1 | -14.2% (inactive) |
| O=C1NC(=O)N(CCc2ccc(F)cc2)C(=O)/C1=C/C=C/c1ccccc1 | 0.109% (inactive) |

| SMILES | activity change, negative = cytotoxicity |
| --- | --- |
| C[C@@H]1CN([C@H](C)CO)S(=O)(=O)c2ccc(C#CC3CC3)cc2O[C@@H]1CN(C)Cc1ccccc1F | -19.6% (inactive) |
| N#Cc1cccc(-c2ccc(C3[C@@H]4CN(C(=O)Cc5ccncc5)C[C@H]3N4)cc2)c1 (stereo partly drawn) | -0.912% (inactive) |
| Cc1nc2cc(-c3ccc(Cl)cc3)nn2c(C)c1CCC(=O)NC(C)c1ccc2c(c1)OCCO2 (stereo not drawn) | -6% (inactive) |
| Cc1ccc(-c2ccc3c(c2)O[C@@H](CN(C)C(=O)Nc2ccc(F)cc2)[C@H](C)CN([C@@H](C)CO)S3(=O)=O)cc1 | 0.801% (inactive) |
| COC(=O)COc1ccc(-c2nccc(-c3ccccn3)n2)cc1 | 11.6% (inactive) |
| O=C(O)CN1C(=O)/C(=C\c2ccccc2OCc2ccc(Cl)cc2Cl)SC1=S | -0.632% (inactive) |
| O=C(O)c1ccc(N/N=C/c2ccc(OC(=O)c3cccc(Cl)c3)cc2)cc1 | -8.45% (inactive) |
| CCOc1ccccc1CNC(=O)c1ccc(Sc2ccc(Cl)cc2)c(NC(C)=O)c1 | -0.342% (inactive) |
| C[C@H](CO)N1C[C@H](C)[C@H](CN(C)Cc2ccc(C(F)(F)F)cc2)Oc2c(NS(=O)(=O)c3ccc(Cl)cc3)cccc2C1=O | 4.37% (inactive) |
| COc1ccc(/C=C2/SC(=S)N(CCCC(=O)Nc3ccccc3C(=O)O)C2=O)cc1 | 5.45% (inactive) |
| CN(C)C(=O)c1ccc(-c2ccccc2[C@@H]2[C@@H](CO)N(C(=O)C3CC3)[C@H]2C#N)cc1 | 0.679% (inactive) |
| C[C@@H]1CN([C@H](C)CO)C(=O)c2cc(C#CCc3ccccc3)cnc2O[C@@H]1CN(C)Cc1cccc(F)c1 | -13.4% (inactive) |
| O=c1c2ccccc2oc2cc(C#CC3(O)CCCCC3)ccc12 | 6.95% (inactive) |
| Nc1ccc(-c2cc3ccccc3oc2=O)cc1 | 3.89% (inactive) |
| O=C(C[C@@H]1C[C@H]2c3cc(NC(=O)CC4CC4)ccc3O[C@H]2[C@H](CO)O1)NCc1ccccc1F | -23.9% (inactive) |
| COc1cc(/C=N/NS(=O)(=O)c2ccc(C)cc2)ccc1OCc1cccc(C(=O)O)c1 | -3.14% (inactive) |
| CCOc1ccc(-c2cc(CCCC(=O)N3CCN(c4ccc(OC)cc4)CC3)no2)cc1 | 9.05% (inactive) |
| O=C1CCC2S/C(=C/Nc3ccc(C(F)(F)F)cc3)C(=O)N12 (stereo not drawn) | -2.74% (inactive) |
| OCCN1CCN(C(=S)c2ccc(-c3ccccc3)cc2)CC1 | 6.18% (inactive) |
| C[C@@H]1CN([C@@H](C)CO)S(=O)(=O)c2ccc(C#Cc3ccncc3)cc2O[C@H]1CN(C)C(=O)C1CCOCC1 | -7.5% (inactive) |
| O=C(Nc1ccc(NC(=O)c2cc3ccccc3o2)cc1)c1ccc2c(c1)OCCO2 | 7.76% (inactive) |
| COc1ccc(C(=O)NCCNc2nc3cc(C)cc(C)c3cc2C#N)c(OC)c1 | 0.961% (inactive) |
| Cc1ccc(/C=N/Nc2ccc3ccccc3n2)o1 | -3.75% (inactive) |
| C(=N\Nc1ccc2ccccc2n1)/c1ccc2c(c1)OCO2 | -5.01% (inactive) |
| Cc1ccc(C(CC(=O)O)Nc2nc(N3CCOCC3)nc(N3CCOCC3)n2)cc1 (stereo not drawn) | 16.9% (inactive) |
| Cc1[nH]c(=S)sc1Cc1ccc(Cl)c(Cl)c1 | 5.33% (inactive) |

| SMILES | activity change, negative = cytotoxicity |
| --- | --- |
| CCCc1nc2ccc(NC(=O)c3cccs3)cc2c(=O)n1Cc1ccccc1Cl | 3.49% (inactive) |
| Cc1ccsc1/C=N/Nc1cccc(C(=O)O)c1 | -8.75% (inactive) |
| Cc1ccccc1N=Nc1c(O)n(C)c2ccccc12 | -1.37% (inactive) |
| CC(Oc1cccc(Cl)c1)C(=O)NCCCCc1ccccc1 (stereo not drawn) | 3.26% (inactive) |
| Cc1ccsc1C(=O)OCC(=O)c1cc(C)n(C)c1C | -0.814% (inactive) |
| COc1ccc2cc(C(N)=O)/c(=N\NC(=O)c3ccccc3)oc2c1 | -2% (inactive) |
| N#C[C@@H]1[C@H](c2ccc(C#Cc3ccccc3F)cc2)[C@@H](CO)N1C(=O)c1cccnc1 | 1.54% (inactive) |
| Cc1csc(NC(=O)CCc2c(C)nc3cc(-c4ccc(Cl)cc4)nn3c2C)n1 | 1.02% (inactive) |
| C=CCOC(=O)c1sc(NC(=O)c2ccc(OC)cc2)nc1C | -13% (inactive) |
| Nc1ccc2oc(-c3cc(Br)ccc3Cl)nc2c1 | 2.05% (inactive) |
| COC(=O)Cc1ccc(NC(=O)c2ccccc2Cl)cc1 | 5% (inactive) |
| CCCCN=C(NNc1ccc(Br)cc1)C(=O)OCC | -5.32% (inactive) |
| O=C(COC(=O)c1ccc[nH]c1=O)Nc1ccc(N2CCCCC2)cc1 | 0.213% (inactive) |
| Cc1ccc(/C=C2\SC(=S)N(CCC(=O)NNC(=O)c3ccccc3O)C2=O)cc1 | 6.17% (inactive) |
| O=C(/C=C/c1ccc(Cl)cc1Cl)N(Cc1ccc(Cl)cc1)C1CCS(=O)(=O)C1 (stereo not drawn) | 2.8% (inactive) |
| CCOC(=O)Cc1ccc(NC(=O)c2ccccc2Br)cc1 | -0.788% (inactive) |
| Cc1ccc(/C=C/C(=O)N2CCN(S(=O)(=O)c3c(C)c(C)cc(C)c3C)CC2)o1 | 4.87% (inactive) |
| COc1ccccc1/C=C1\SC(=S)N(CCC(=O)Nc2cc(C)on2)C1=O | 6.59% (inactive) |
| CCCNC(=O)[C@@H]1[C@@H](CO)[C@@H]2Cn3c(ccc(-c4ccccc4)c3=O)[C@H]1N2C(=O)CC | 14.5% (inactive) |
| C[C@@H]1CN([C@H](C)CO)C(=O)c2cc(NS(=O)(=O)c3ccc(Cl)cc3)ccc2O[C@@H]1CN(C)Cc1ccc(Cl)c(Cl)c1 | -17.2% (inactive) |
| O=C(Nc1ccc(OC(=O)N2CCCCC2)cc1)N1CCOCC1 | 1.28% (inactive) |
| COc1ccc(C=NNc2nc3ccccc3s2)cc1 | 3.07% (inactive) |
| Cc1noc(C)c1NC(=O)Nc1ccc2c(c1)CC(=O)N([C@@H](C)CO)C[C@@H](C)[C@@H](CN(C)Cc1ccc(Cl)c(Cl)c1)O2 | 0.825% (inactive) |
| O=C(NCc1ccccn1)c1ccc(CNS(=O)(=O)c2cccc(Cl)c2)cc1 | 0.155% (inactive) |
